Like-named read-outs stand apart in the source and are kept apart here.

What is called IC50 is the concentration that inhibits the measured activity by half.

Experiment [1] relates to ERK phosphorylation in KYSE-520 cells. Description: Phospho-ERK cellular assay. Type of experiment: cell-based. To be noted: KYSE-520 cells, 2 h at 37° C., phospho-ERK1/2 (Thr202/Tyr204) TR-FRET, read-out: PERK IC50. The method in brief: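 TR-FRET read-out of ERK1/2 Thr202/Tyr204 phosphorylation was taken after overnight antibody incubation at room temperature. Before that, KYSE-520 cells were treated 2 h at 37 °C with compound dilutions and lysed 30 min. Percent inhibition relative to vehicle and cell-free wells was fitted four-parametrically to give IC50.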
On the technique in general: TR-FRET usually uses a lanthanide donor and a delayed reading to cut background.

Experiment [2] addresses SHP-2 enzyme (Met1-Leu525) (Homo sapiens (Human), UniProt Q06124). Description: SHP2 inhibition enzymatic assay. Type of experiment: biochemical. The following applies: 0.5 nM SHP-2 activated by 500 nM IRS1 peptide, 75 μM DiFMUP substrate; read-out: SHP2wt-IC50. The method in brief: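 SHP-2 (Met1-Leu525), 0.5 nM, activated with 500 nM IRS1 bis-phosphopeptide, preincubated 30 min with compounds in HEPES pH 7.2 buffer with 5 mM DTT. 75 μM DiFMUP added for 30 min at room temperature, stopped with bpV; fluorescence read. IC50 from four-parameter logistic fit of % inhibition.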

SHP-2 enzyme (Met1-Leu525), sequence (Q06124 1-525): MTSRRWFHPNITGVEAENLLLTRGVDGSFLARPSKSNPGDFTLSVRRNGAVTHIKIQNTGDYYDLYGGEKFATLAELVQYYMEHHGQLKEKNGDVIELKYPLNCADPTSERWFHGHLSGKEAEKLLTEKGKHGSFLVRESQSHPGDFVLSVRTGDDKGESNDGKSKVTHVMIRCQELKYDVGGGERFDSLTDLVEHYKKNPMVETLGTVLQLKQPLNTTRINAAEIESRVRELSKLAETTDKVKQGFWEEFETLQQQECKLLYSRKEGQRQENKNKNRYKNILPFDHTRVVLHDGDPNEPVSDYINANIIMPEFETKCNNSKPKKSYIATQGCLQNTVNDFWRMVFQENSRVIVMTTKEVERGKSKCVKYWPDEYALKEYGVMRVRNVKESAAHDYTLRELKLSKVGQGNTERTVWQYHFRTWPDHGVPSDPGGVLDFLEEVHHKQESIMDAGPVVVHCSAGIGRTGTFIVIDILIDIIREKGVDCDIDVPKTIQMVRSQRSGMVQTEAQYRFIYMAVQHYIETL

Take `NC[C@]1(c2ccccc2F)[C@@H]2CCN(c3cnc4c(-c5ccn6nccc6c5)n[nH]c4n3)C[C@@H]21` [Example 136, ((1S,6R,7R)-7-(2-fluorophenyl)-3-(3-(pyrazolo[1,5-a]pyridin-5-yl)-1H-pyrazolo[3,4-b]pyrazin-6-yl)-3-azabicyclo[4.1.0]heptan-7-yl)methanamine]: the IC50 in experiment [1] (Homo sapiens, KYSE-520, 2 h) was less than 1000 nM; in experiment [2], less than 500 nM.

Regarding `Cc1csc([C@@]2(CN)[C@@H]3CCN(c4cnc5c(-c6ccn7nc(C)cc7c6Cl)n[nH]c5n4)C[C@@H]32)n1` [Example 440, ((1S,6R,7S)-3-(3-(4-chloro-2-methylpyrazolo[1,5-a]pyridin-5-yl)-1H-pyrazolo[3,4-b]pyrazin-6-yl)-7-(4-methylthiazol-2-yl)-3-azabicyclo[4.1.0]heptan-7-yl)methanamine], the half-maximal inhibitory concentration (IC50) was less than 1000 nM in experiment [1] (Homo sapiens, KYSE-520, 2 h) and less than 500 nM in experiment [2].

On to `CN1C(=O)COc2ccc(-c3n[nH]c4nc(N5CC[C@@H]6[C@H](C5)[C@@]6(CN)c5ccccc5F)cnc34)c(Cl)c21` [Example 228, 6-(6-((1S,6R,7R)-7-(aminomethyl)-7-(2-fluorophenyl)-3-azabicyclo[4.1.0]heptan-3-yl)-1H-pyrazolo[3,4-b]pyrazin-3-yl)-5-chloro-4-methyl-2H-benzo[b][1,4]oxazin-3(4H)-one], for which the IC50 in experiment [1] (Homo sapiens, KYSE-520, 2 h) was less than 1000 nM; in experiment [2] it was less than 500 nM.

Regarding `Cc1cc([C@@]2(CN)[C@@H]3CCN(c4cnc5c(-c6ccnc7ccc(F)cc67)n[nH]c5n4)C[C@@H]32)no1` [Example 39, ((1S,6R,7S)-3-(3-(6-fluoroquinolin-4-yl)-1H-pyrazolo[3,4-b]pyrazin-6-yl)-7-(5-methylisoxazol-3-yl)-3-azabicyclo[4.1.0]heptan-7-yl)methanamine], the half-maximal inhibitory concentration (IC50) was less than 1000 nM in experiment [1] (Homo sapiens, KYSE-520, 2 h) and less than 500 nM in experiment [2].

For `NCC1(c2ccccn2)C2CCN(c3nc4nc(Sc5cccnc5C(F)(F)F)cnc4[nH]3)CC21` (stereo not drawn) [Example 65, (7-(pyridin-2-yl)-3-(5-((2-(trifluoromethyl)pyridin-3-yl)thio)-1H-imidazo[4,5-b]pyrazin-2-yl)-3-azabicyclo[4.1.0]heptan-7-yl)methanamine], the half-maximal inhibitory concentration (IC50) was 1000 to 5000 nM in experiment [1] (Homo sapiens, KYSE-520, 2 h) and less than 500 nM in experiment [2].

On to `Cc1csc(C2(CN)C3CCN(c4cnc(Sc5cccnc5C(F)(F)F)c(N)n4)CC32)n1` (stereo not drawn) [Example 73, 6-(7-(aminomethyl)-7-(4-methylthiazol-2-yl)-3-azabicyclo[4.1.0]heptan-3-yl)-3-((2-(trifluoromethyl)pyridin-3-yl)thio)pyrazin-2-amine], for which the IC50 in experiment [1] (Homo sapiens, KYSE-520, 2 h) is 1000 to 5000 nM; in experiment [2] it was less than 500 nM.

With `Cn1cc2c(Cl)c(-c3n[nH]c4nc(N5C[C@@H]6[C@H](C5)[C@@]6(CN)c5nc(C(F)(F)F)cs5)n(C)c(=O)c34)ccc2n1` [Example 471, 6-((1R,5S,6r)-6-(aminomethyl)-6-(4-(trifluoromethyl)thiazol-2-yl)-3-azabicyclo[3.1.0]hexan-3-yl)-3-(4-chloro-2-methyl-2H-indazol-5-yl)-5-methyl-1,5-dihydro-4H-pyrazolo[3,4-d]pyrimidin-4-one], the IC50 in experiment [1] (Homo sapiens, KYSE-520, 2 h) is less than 1000 nM; in experiment [2] it was less than 500 nM.

For the molecule `Cc1csc([C@@]2(CN)[C@@H]3CN(c4cnc5c(-c6ccc7nn(C(F)F)cc7c6Cl)n[nH]c5n4)C[C@@H]32)n1` [Example 466], the IC50 is less than 1000 nM in experiment [1] and less than 500 nM in experiment [2].

For the molecule `Cc1cc(C2(CN)C3CCN(c4nc5[nH]nc(Sc6ccnc(N)c6Cl)c5nc4CO)CC32)no1` (stereo not drawn) [Example 57, (3-((2-amino-3-chloropyridin-4-yl)thio)-6-(7-(aminomethyl)-7-(5-methylisoxazol-3-yl)-3-azabicyclo[4.1.0]heptan-3-yl)-1H-pyrazolo[3,4-b]pyrazin-5-yl)methanol], the IC50 in experiment [1] (Homo sapiens, KYSE-520, 2 h) is 1000 to 5000 nM; in experiment [2] it was less than 500 nM.
